pEC50: −log10 of the molar value.
Tests used:
[1] = tested on: stable HCV 1a RLuc replicon cells (genotype 1a H77 replicon); assay: HCV genotype 1a RLuc replicon reporter assay; assay type: cell-based; conditions: Hepatitis C virus; stable genotype 1a H77 RLuc replicon cells, 72 hours
[2] = tested on: L31V/Y93H in genotype 1b NS5A replicon; assay: Resistance mutant replicon assay, genotype 1b NS5A L31V/Y93H; assay type: cell-based, HCV; conditions: Hepatitis C virus, read-out: 1b L31V/Y93H (nM)
Protocol: Evaluation of cell-based anti-HCV activity: Antiviral potency (EC50) was determined using a Renilla luciferase (RLuc)-based HCV replicon reporter assay. To perform the assay for genotype 1 and 2a JFH-1, stable HCV 1a RLuc replicon cells (harboring a dicistronic genotype 1a H77 replicon that encodes a RLuc reporter), stable HCV lb RLuc replicon cells (harboring a dicistronic genotype 1b Conl replicon that encodes a RLuc reporter), or stable HCV 2a JFH-1 Rluc replicon cells (harboring a dicistronic genotype 2a JFH-1 replicon that encodes a RLuc reporter; with L31 present in NS5A) were dispensed into 384-well plates for EC50 assays. To perform the assay for genotype 2a (with M31 present in NS5A) or 2b, NS5A chimeric genotype 2a JFH-1 replicons that encodes a RLuc-Neo reporter and either genotype 2a J6 strain NS5A gene or genotype 2b MD2b-1 strain NS5A gene (both with M31 present) respectively, were either transiently transfected (t) into Huh-Lunet cells or were established as stably replicating replicon cells (s) is provided. Either cells were dispensed into 384-well plates for EC50 assays. To perform the assay for genotype 3 and 4, NS5A chimeric genotype 1b Conl replicons that encodes a Pi-RLuc reporter and either genotype 3a S52 strain NS5A gene or genotype 4a ED43 strain NS5A gene respectively, were transiently transfected (t) into Huh-Lunet cells, which were subsequently dispensed into 384-well plates. Compounds were dissolved in DMSO at a concentration of 10 mM and diluted in DMSO either manually or using an automated pipeting instrument. Serially 3-fold diluted compounds were either manually mixed with cell culture media and added to the seeded cells or directly added to the cells using an automated instrument. DMSO was used as a negative (solvent; no inhibition) control, and the protease inhibitor ITMN-191 was included at a concentration >100×EC50 as a positive control. 72 hours later, cells were lysed and Renilla luciferase activity quantified as recommended by the manufacturer (Promega-Madison, Wis.). Non-linear regression was performed to calculate EC50 values.
To determine the antiviral potency (EC50) against resistance mutants, resistance mutations, including M28T, Q30R, Q30H, Q30E, L31M, Y93C, Y93H, and Y93N in genotype 1a NS5A, Y93H and L31V/Y93H in genotype 1b NS5A, and Y93H for in genotype 3a NS5A, were introduced individually into either 1a Pi-Rluc or 1b Pi-Rluc replicons by site directed mutagenesis. Replicon RNA of each resistant mutant was transiently transfected into Huh-7-derived cured-51 cells and antiviral potency was determined on these transfected cells as described above.

[3] = tested on: NS5A chimeric genotype 1b Con1 replicon with genotype 3a S52 strain NS5A gene; assay: HCV genotype 3a NS5A chimeric replicon assay; assay type: cell-based; conditions: Hepatitis C virus, 72 h, read-out: 3a (nM)
Procedure, shortened: (§1)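 Chimeric replicons for 3a and 4a use a Pi-RLuc reporter and were transiently transfected into Huh-Lunet cells; the 2b chimera (RLuc-Neo) was likewise transient in Huh-Lunet; 1b cells are stable. Cells were exposed to 3-fold serial compound dilutions for 72 h, then lysed. EC50s came from non-linear regression of Renilla luciferase signal.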

[4] = tested on: Y93H in genotype 1a NS5A replicon; assay: Resistance mutant replicon assay, genotype 1a NS5A Y93H; assay type: cell-based, HCV; conditions: Hepatitis C virus, read-out: 1a Y93H (nM)
Procedure, shortened: (§2)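 Mutant NS5A replicons (1a or 1b Pi-RLuc backbone; 3a NS5A in chimeric 1b) made by site-directed mutagenesis, RNA transiently transfected into Huh-7-derived cured-51 cells. Cells treated with 3-fold serial dilutions for 72 h; Renilla luciferase read; EC50 by non-linear regression.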

[5] = tested on: stable HCV 2a JFH-1 Rluc replicon cells (L31 present in NS5A); assay: HCV genotype 2a JFH-1 RLuc replicon reporter assay; assay type: cell-based; conditions: Hepatitis C virus, 72 h, read-out: 2a JFH (nM)
[6] = tested on: Y93N in genotype 1a NS5A replicon; assay: Resistance mutant replicon assay, genotype 1a NS5A Y93N; assay type: cell-based, HCV; conditions: Hepatitis C virus, read-out: 1a Y93N (nM)
Procedure, shortened: as §2

[7] = tested on: stable HCV 1b RLuc replicon cells (genotype 1b Con1 replicon); assay: HCV genotype 1b RLuc replicon reporter assay; assay type: cell-based; conditions: Hepatitis C virus; stable genotype 1b Con1 RLuc replicon cells, 72 hours
Procedure, shortened: as §1

[8] = IV and PO single dose pharmacokinetic studies in SD rats; assay type: in vivo; conditions: Sprague-Dawley, rat, plasma, male SD rats, IV infusion 1 mg/kg, oral gavage 2 mg/kg, read-out: Rat % F
Procedure, shortened: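 Fasted male Sprague-Dawley rats (n=3/group) dosed IV by 30-min jugular infusion at 1 mg/kg or by oral gavage at 2 mg/kg, in ethanol/PEG 400 vehicles at pH 2.0–2.2. Serial plasma to 24 h quantified by LC/MS/MS (SRM); non-compartmental analysis, linear-trapezoidal AUC, %F as oral vs IV AUC.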

[9] = tested on: Y93H in genotype 3a NS5A replicon; assay: Resistance mutant replicon assay, genotype 3a NS5A Y93H; assay type: cell-based, HCV; conditions: Hepatitis C virus, read-out: 3a Y93H (nM)
Procedure, shortened: as §2

[10] = tested on: NS5A chimeric genotype 2a JFH-1 replicon with genotype 2b MD2b-1 strain NS5A gene (M31); assay: HCV genotype 2b NS5A chimeric replicon assay, transient (t); assay type: cell-based; conditions: Hepatitis C virus, 72 h, read-out: 2b (t) (nM)
Procedure, shortened: as §1

Row | Compound | pEC50 [1] | EC50 [2] [nM] | EC50 [3] [nM] | EC50 [4] [nM] | EC50 [5] [nM] | EC50 [6] [nM] | pEC50 [7] | bioavailability [8] [%] | EC50 [9] [nM] | EC50 [10] [nM]
1 | COC(=O)N[C@H](C(=O)N1[C@@H](C)CC[C@H]1c1ncc(-c2ccc3c(c2)COc2cc4c(ccc5nc([C@@H]6CC[C@H](C)N6C(=O)[C@@H](NC(=O)OC)C6CC(C)O[C@H](C)C6)[nH]c54)cc2-3)[nH]1)C(C)C (stereo in doubt) [Example AQ, Methyl {(2S)-1-[(2S,5S)-2-(5-{2-[(2S,5S)-1-{(2S)-2-[(2R,6R)-2,6-dimethyltetrahydro-2H-pyran-4-yl]-2-[(methoxycarbonyl)amino]acetyl}-5-methylpyrrolidin-2-yl]-1,11-dihydroisochromeno[4′,3′:6,7]naphtho[1,2-d]imidazol-9-yl}-1H-imidazol-2-yl)-5-methylpyrrolidin-1-yl]-3-methyl-1-oxobutan-2-yl}carbamate] | 10.72 | 0.908 | 0.017 | 0.206 | 0.016 | 0.337 | 10.54 | 22.9 | 0.703 | 0.016
2 | CC[C@H]1CC[C@@H](c2nc3ccc4cc5c(cc4c3[nH]2)OCc2cc(-c3cnc([C@@H]4CC[C@H](C)N4C(=O)[C@@H](NC(=O)OC)C(C)C)[nH]3)ccc2-5)N1C(=O)[C@@H](NC(=O)OC)C1CCOCC1 [Comp 3, reference compound] | 10.68 | – | 0.065 | 2.54 | 0.019 | – | 10.59 | 46.6 | 14.1 | –
3 | CC[C@H](C)[C@H](NC(=O)OC)C(=O)N1[C@@H](C)CC[C@H]1c1ncc(-c2ccc3c(c2)COc2cc4c(ccc5nc([C@@H]6CC[C@H](C)N6C(=O)[C@@H](NC(=O)OC)C6CCOCC6)[nH]c54)cc2-3)[nH]1 [Comp 4, reference compound] | 10.64 | – | 0.043 | 0.978 | 0.018 | 1.06 | 10.55 | 22.1 | 0.695 | –
4 | CC[C@H](C)[C@H](NC(=O)OC)C(=O)N1[C@@H](C)CC[C@H]1c1nc2ccc3cc4c(cc3c2[nH]1)OCc1cc(-c2cnc([C@@H]3CC[C@H](C)N3C(=O)[C@@H](NC(=O)OC)C3CCOCC3)[nH]2)ccc1-4 [Comp 12, reference compound] | 10.89 | 0.097 | 0.026 | 1.24 | 0.009 | 1.38 | 10.66 | 5.64 | 17.7 | –
5 | CC[C@H](C)[C@H](NC(=O)OC)C(=O)N1[C@@H](C)CC[C@H]1c1ncc(-c2ccc3c(c2)COc2cc4c(ccc5nc([C@@H]6CC[C@H](C)N6C(=O)[C@@H](NC(=O)OC)C6C[C@@H](C)O[C@H](C)C6)[nH]c54)cc2-3)[nH]1 (stereo partly drawn) [Example AA, Methyl {(2S,3S)-1-[(2S,5S)-2-(5-{2-[(2S,5S)-1-{(2S)-2-[(2R,6R)-2,6-dimethyltetrahydro-2H-pyran-4-yl]-2-[(methoxycarbonyl)amino]acetyl}-5-methylpyrrolidin-2-yl]-1,11-dihydroisochromeno[4′,3′:6,7]naphtho[1,2-d]imidazol-9-yl}-1H-imidazol-2-yl)-5-methylpyrrolidin-1-yl]-3-methyl-1-oxopentan-2-yl}carbamate] | 10.80 | 0.498 | 0.014 | 0.322 | 0.011 | 0.57 | 10.77 | 28.1 | 0.544 | 0.014
6 | COC(=O)N[C@H](C(=O)N1[C@@H](C)CC[C@H]1c1ncc(-c2ccc3c(c2)COc2cc4c(ccc5nc([C@@H]6CC[C@H](C)N6C(=O)[C@@H](NC(=O)OC)[C@H]6C[C@@H](C)O[C@@H](C)C6)[nH]c54)cc2-3)[nH]1)C(C)C [Example AM, Methyl {(2S)-1-[(2S,5S)-2-(5-{2-[(2S,5S)-1-{(2S)-2-[(2R,6S)-2,6-dimethyltetrahydro-2H-pyran-4-yl]-2-[(methoxycarbonyl)amino]acetyl}-5-methylpyrrolidin-2-yl]-1,11-dihydroisochromeno[4′,3′:6,7]naphtho[1,2-d]imidazol-9-yl}-1H-imidazol-2-yl)-5-methylpyrrolidin-1-yl]-3-methyl-1-oxobutan-2-yl}carbamate] | 11.05 | 11.6 | 0.011 | – | 0.005 | 4.65 | 10.85 | 21.9 | 8.06 | 0.008
7 | COC(=O)N[C@H](C(=O)N1[C@@H](C)CC[C@H]1c1nc2ccc3cc4c(cc3c2[nH]1)OCc1cc(-c2cnc([C@@H]3CC[C@H](C)N3C(=O)[C@@H](NC(=O)OC)[C@H]3C[C@@H](C)O[C@@H](C)C3)[nH]2)ccc1-4)C(C)C [Example AO, Methyl {(2S)-1-[(2S,5S)-2-(9-{2-[(2S,5S)-1-{(2S)-2-[(2R,6S)-2,6-dimethyltetrahydro-2H-pyran-4-yl]-2-[(methoxycarbonyl)amino]acetyl}-5-methylpyrrolidin-2-yl]-1H-imidazol-5-yl}-1,11-dihydroisochromeno[4′,3′:6,7]naphtho[1,2-d]imidazol-2-yl)-5-methylpyrrolidin-1-yl]-3-methyl-1-oxobutan-2-yl}carbamate] | 10.92 | 17.5 | 0.021 | – | 0.008 | 9.03 | 10.82 | 50.3 | 9.06 | 0.015
8 | COC[C@H]1C[C@@H](c2ncc(-c3ccc4c(c3)COc3cc5c(ccc6nc([C@@H]7CC[C@H](C)N7C(=O)[C@@H](NC(=O)OC)C7C[C@@H](C)O[C@H](C)C7)[nH]c65)cc3-4)[nH]2)N(C(=O)[C@@H](NC(=O)OC)C2C[C@@H](C)O[C@H](C)C2)C1 (stereo partly drawn) [Example BH, Methyl {(1S)-1-[(2R,6R)-2,6-dimethyltetrahydro-2H-pyran-4-yl]-2-[(2S,5S)-2-(9-{2-[(2S,4S)-1-{(2S)-2-[(2R,6R)-2,6-dimethyltetrahydro-2H-pyran-4-yl]-2-[(methoxycarbonyl)amino]acetyl}-4-(methoxymethyl)pyrrolidin-2-yl]-1H-imidazol-5-yl}-1,11-dihydroisochromeno[4′,3′:6,7]naphtho[1,2-d]imidazol-2-yl)-5-methylpyrrolidin-1-yl]-2-oxoethyl}carbamate] | 10.28 | – | 0.056 | 0.04 | 0.013 | 0.082 | 9.93 | 2.7 | 0.612 | –

Reference: US20160362416A1, “ANTIVIRAL COMPOUNDS” (Gilead Sciences, Inc., priority 2012, published 2016)
